The record followed here is US10420748B2, “Methods of treatment associated with the granulocyte colony-stimulating factor receptor” (LIGAND PHARMACEUTICALS INCORPORATED, priority 2013, dated 2019).

For assay [1], the system named is HL-60 cells. Kind of assay: Cell growth inhibition (ATPlite), HL-60. In kind it is cell-based, human. As to conditions: HL-60, 72 hours. As for the experimental part: (§1) The human acute promyelocytic leukemia cell line HL-60, the acute myeloid leukemia cell line Kasumi-1, the lung carcinoma cell line A549, the embryonic kidney cell line HEK293, and the hepatocellular carcinoma cell line HepG2 were purchased from ATCC. HL-60 and A549 cells were grown in RPMI-1640 media containing 10% fetal bovine serum (FBS). Kasumi-1 cells were grown in RPMI-1640 media containing 20% FBS. HEK293 and HepG2 cells were grown in Eagles Minimal Essential Media containing 10% FBS. Cells were plated in 96-well microtiter plates at a density of either 2000 cells/well (A549 cells) or 5000 cells/well and incubated overnight at 37° C. Cell growth was measured by the ATPlite™ istep Kit (PerkinElmer, Waltham, Mass.) according to the manufacturer's instructions. ATPlite™ uses firefly luciferase to indirectly quantify the level of adenosine triphosphate (ATP) as a measure of proliferation and cytotoxicity of cultured mammalian cells. […] Luminescence, quantified as relative luciferase units (RLU), was measured on an Envision plate reader (PerkinElmer). For each replicate, the mean and standard deviation of the RLU at each concentration of compound was calculated. […]
HL-60 cells were plated in 96-well microtiter plates in RPMI-1640 media containing 10% FBS at a density of 5000 cells/well. […] Cell growth was measured using the ATPlite™ istep Kit. […]
For orientation: Cellular ATP, detected with luciferase, serves as a proxy for viable cell number.

Another assay relates to HEPG2 cells. Kind of assay: Cell growth inhibition (ATPlite), HEPG2. Type of assay: cell-based. As to conditions: Homo sapiens, HEPG2, 72 hours, mean±SEM, n = 3, read-out: Inhibition of Tumor Cell Growth (IC50, μM) HEPG2. As for the experimental part:
as §1, with “cells. Compounds were diluted in the appropriate cell culture media for each cell type at incremental concentrations ranging from 0.1 nM to 100 tiM.” for “cells.”

In a further assay the test system is HEK293 cells. Briefly: Cell growth inhibition (ATPlite), HEK293. In kind it is cell-based. As to conditions: Homo sapiens, HEK293, 72 hours, mean±SEM, n = 3, read-out: Inhibition of Tumor Cell Growth (IC50, μM) HEK293. As for the experimental part: as §1, with “cells. Compounds were diluted in the appropriate cell culture media for each cell type at incremental concentrations ranging from 0.1 nM to 100 tiM.” for “cells.”

The subject of a further assay is Cynomolgus monkeys. Briefly: Blood cell induction (peripheral blood neutrophils). Type of assay: in vivo. Here is the method:
Test compound was evaluated in an animal model for the ability to increase blood cell count, and particularly peripheral blood neutrophils, according to the following protocol. A test compound (Compound 101) was formulated in DMSO:PEG400:PBS at a concentration of 2 mg/mL. Cynomolgus monkeys where then dosed with either vehicle or the test compound via an IV injection for three days. Doses were administered in the morning and then at 5, and 10 hours later. On Day four, a single dose was administered. Blood samples were then collected at the start of the experiment, at Day 4 at 3 hours, 6 hours, and 9 hours after the single dose, and at Day 7. Blood samples were collected and analyzed on a commercial hematology system (ADVIA 2120). The results for neutrophil evaluation are graphically represented in FIG. 3 for both vehicle and Compound 101.

The test system of a further assay is Kasumi-1 cells. Kind of assay: Cell growth inhibition (ATPlite), Kasumi-1. In kind it is cell-based. As to conditions: Homo sapiens, Kasumi-1, 72 hours, mean±SEM, n = 3, read-out: Inhibition of Tumor Cell Growth (IC50, μM) Kasumi-1. As for the experimental part: as §1, with “cells. Compounds were diluted in the appropriate cell culture media for each cell type at incremental concentrations ranging from 0.1 nM to 100 tiM.” for “cells.”

Another assay relates to A549 cells. Kind of assay: Cell growth inhibition (ATPlite), A549. Type of assay: cell-based. As to conditions: Homo sapiens, A549, 72 hours, mean±SEM, n = 3, read-out: Inhibition of Tumor Cell Growth (IC50, μM) A549. As for the experimental part: as §1, with “cells. Compounds were diluted in the appropriate cell culture media for each cell type at incremental concentrations ranging from 0.1 nM to 100 tiM.” for “cells.”

For assay [2], the system named is HL-60 cells. Briefly: Induction of apoptosis (Annexin V/Sytox Red, FACS). Type of assay: cell-based, human. As to conditions: HL-60, 10 μM, 48 hours, versus vehicle (DMSO), FIG. 2. As for the experimental part:
HL-60 cells were incubated under similar conditions to the cell growth assay described above (i.e. 50,000 cell/well of a 24-well plate, incubated in cell culture media in the presence of vehicle or compound for 48 hours at 37° C. in an incubator with 5% CO2). Apoptosis was determined by using Annexin V/Sytox Red staining (Life Technologies/Invitrogen) followed by assaying with fluorescence-activated cell sorting (FACS) according to standard protocols. In this assay, vehicle constituted DMSO and the test compound (Compound 101) was diluted to 10 μM with cell culture media from a 10 mM stock solution of Compound 101 in DMSO. The results of the apoptosis assay are described in FIG. 2. […] Compound 101 decreased the number of viable cells in the assay by over 60% and produced nearly a 50% increase in necrotic cells and over a 15% increase in apoptotic cells.

As usually defined, the IC50 is the midpoint of a concentration-inhibition curve. As for `Cc1cc(C)cc(N2C(=O)/C(=C(\NNC(=O)CCC(N)=O)c3ccccc3)c3ccc(C(F)(F)F)cc32)c1` [Compound 101], the “effect on HL-60 cell growth (dose response curve, FIG. 1)” value in the assay on HL-60 cells [1] (versus Blank) was “dose-dependent effect”. Also, the 50% inhibitory concentration (IC50) in the assay with HL-60 cells [1] (Homo sapiens, mean±SEM, n = 5, read-out: Inhibition of Tumor Cell Growth (IC50, μM) HL-60) is 5 ± 2.8 µM; with HEPG2 cells it was 0.9 ± 0.1 µM; in the assay on HEK293 cells, 1.4 ± 0.04 µM; with Kasumi-1 cells it was 12.1 ± 2.4 µM; with A549 cells, 6.1 ± 2.5 µM. Further, the “neutrophil count following three days without dosing” value in the assay on Cynomolgus monkeys (Day 7 time point) is listed as “returned to a level similar to the vehicle”. Besides, in the assay on Cynomolgus monkeys (IV, Day 4, 9 hours after the single dose), the “significance of neutrophil count increase versus vehicle” value is reported as “statistically significant”. Besides, the “neutrophil count versus vehicle after the three day dosing phase” value with Cynomolgus monkeys (IV, three doses daily for three days, single dose Day 4, Day 4 samples, FIG. 3) is “higher neutrophil count than vehicle”. Further, the “increase in apoptotic cells” value in the assay on HL-60 cells [2] was above 15%. Moreover, in the assay with HL-60 cells [2], the “increase in necrotic cells” value is around 50%. The cytotoxicity at 10 µM in the assay on HL-60 cells [2] (Homo sapiens, read-out: decrease in number of viable cells) was above 60%.
